# Source: patent EP0258782A2, “Use of 1-(substituted mercapto-hydroxyethyl)-triazoles in the treatment of illnesses” (BAYER AG, priority 1986, dated 1988)
# Test system: Aspergillus fumigatus
# Assay: Antimycotic in-vitro activity, serial dilution test (MIC)
# Format: cell-based
# Details: Sabouraud's milieu d'epreuve, 28-37 °C, 96 h, inoculum 5 x 10^3 to 10^4 germs/ml, read-out: MHK-Werte in γ/ml Nährmedium, Aspergillus fumigatus
# Experimental: (§1) Die in-vitro-Prüfungen wurden im Reihenverdünnungstest mit Keiminokula von durchschnittlich 5 x 10³ bis 10⁴ Keimen/ml Substrat durchgeführt. Als Nähmedium dienten • a) für Dermatophyten und Schimmelpilze: Sabouraud's milieu d'epreuve • b) für Hefen: Fleischextrakt-Traubenzucker-Bouillon.
# (§2) Die Bebrütungstemperatur betrug 28 °C bis 37 °C, die Bebrütungsdauer lag bei 24 bis 96 Stunden bei Hefen und 96 Stunden bei Dermatophyten und Schimmelpilzen.
row,SMILES,MIC
1,CC(C)SCC(O)(Cn1cncn1)C(C)(C)Cc1ccc(F)cc1 (stereo not drawn) [I-55],2 µg/mL
2,CC(C)(Cc1ccc(F)cc1)C(O)(CSCc1ccc(Cl)cc1)Cn1cncn1 (stereo not drawn) [I-58],8 µg/mL
3,CCCSCC(O)(Cn1cncn1)C(C)(C)Cc1ccc(SC(F)(F)F)cc1 (stereo not drawn) [I-60],< 1 µg/mL
4,CCCCSCC(O)(Cn1cncn1)C(C)(C)Cc1ccc(SC(F)(F)F)cc1 (stereo not drawn) [I-61],2 µg/mL
5,CC(C)(Cc1ccc(SC(F)(F)F)cc1)C(O)(CS)Cn1cncn1 (stereo not drawn) [I-63],< 1 µg/mL
6,Cc1cccc(CC(C)(C)C(O)(CSC(C)C)Cn2cncn2)c1 (stereo not drawn) [I-65],4 µg/mL
7,CCCCSCC(O)(Cn1cncn1)C(C)(C)Cc1cccc(C)c1 (stereo not drawn) [I-66],4 µg/mL
8,CCSCC(O)(Cn1cncn1)C(C)(C)COc1ccc(Cl)cc1 (stereo not drawn) [I-68],< 1 µg/mL
9,CCSCC(O)(Cn1cncn1)C(C)(C)COc1ccc(Cl)c(C)c1 (stereo not drawn) [I-69],2 µg/mL
10,CCCSCC(O)(Cn1cncn1)C(C)(C)COc1ccc(Cl)c(C)c1 (stereo not drawn) [I-70],8 µg/mL

# Continued, values first:
row,MIC,SMILES
1,< 1 µg/mL,CCCSCC(O)(Cn1cncn1)C(C)(C)Cc1ccc(C)cc1 (stereo not drawn) [I-49]
2,< 1 µg/mL,CCSCC(O)(Cn1cncn1)C(C)(C)Cc1ccc(C)cc1 (stereo not drawn) [I-50]
3,< 1 µg/mL,CCCSCC(O)(Cn1cncn1)C(C)(C)Cc1ccc(F)cc1 (stereo not drawn) [I-53]
4,4 µg/mL,CCSCC(O)(Cn1cncn1)C(C)(C)Cc1cccc(C)c1 (stereo not drawn) [I-64]
5,4 µg/mL,CCSCC(O)(Cn1cncn1)C(C)(C)Cc1ccccc1C (stereo not drawn) [I-67]

# Test system: Candida albicans
# Assay: as above
# Format: cell-based
# Details: Fleischextrakt-Traubenzucker-Bouillon, 28-37 °C, 24-96 h, inoculum 5 x 10^3 to 10^4 germs/ml, read-out: MHK-Werte in γ/ml Nährmedium, Candida albicans
# Experimental: as §1, §2
row,SMILES,MIC
1,CC(C)SCC(O)(Cn1cncn1)C(C)(C)Cc1ccc(F)cc1 (stereo not drawn) [I-55],2 µg/mL
2,CC(C)(Cc1ccc(F)cc1)C(O)(CSCc1ccc(Cl)cc1)Cn1cncn1 (stereo not drawn) [I-58],2 µg/mL
3,CCCSCC(O)(Cn1cncn1)C(C)(C)Cc1ccc(SC(F)(F)F)cc1 (stereo not drawn) [I-60],2 µg/mL
4,CCCCSCC(O)(Cn1cncn1)C(C)(C)Cc1ccc(SC(F)(F)F)cc1 (stereo not drawn) [I-61],8 µg/mL
5,CC(C)(Cc1ccc(SC(F)(F)F)cc1)C(O)(CS)Cn1cncn1 (stereo not drawn) [I-63],2 µg/mL
6,Cc1cccc(CC(C)(C)C(O)(CSC(C)C)Cn2cncn2)c1 (stereo not drawn) [I-65],2 µg/mL
7,CCCCSCC(O)(Cn1cncn1)C(C)(C)Cc1cccc(C)c1 (stereo not drawn) [I-66],< 1 µg/mL
8,CCSCC(O)(Cn1cncn1)C(C)(C)COc1ccc(Cl)cc1 (stereo not drawn) [I-68],< 1 µg/mL
9,CCSCC(O)(Cn1cncn1)C(C)(C)COc1ccc(Cl)c(C)c1 (stereo not drawn) [I-69],< 1 µg/mL
10,CCCSCC(O)(Cn1cncn1)C(C)(C)COc1ccc(Cl)c(C)c1 (stereo not drawn) [I-70],< 1 µg/mL

# Other lines, results leading:
row,MIC,SMILES
1,< 1 µg/mL,CCCSCC(O)(Cn1cncn1)C(C)(C)Cc1ccc(C)cc1 (stereo not drawn) [I-49]
2,< 1 µg/mL,CCSCC(O)(Cn1cncn1)C(C)(C)Cc1ccc(C)cc1 (stereo not drawn) [I-50]
3,< 1 µg/mL,CCCSCC(O)(Cn1cncn1)C(C)(C)Cc1ccc(F)cc1 (stereo not drawn) [I-53]
4,< 1 µg/mL,CCSCC(O)(Cn1cncn1)C(C)(C)Cc1cccc(C)c1 (stereo not drawn) [I-64]
5,< 1 µg/mL,CCSCC(O)(Cn1cncn1)C(C)(C)Cc1ccccc1C (stereo not drawn) [I-67]

# Test system: Microsporum canis
# Assay: as above
# Format: cell-based
# Details: Sabouraud's milieu d'epreuve, 28-37 °C, 96 h, inoculum 5 x 10^3 to 10^4 germs/ml, read-out: MHK-Werte in γ/ml Nährmedium, Microsporum canis
# Experimental: as §1, §2
row,SMILES,MIC
1,CC(C)SCC(O)(Cn1cncn1)C(C)(C)Cc1ccc(F)cc1 (stereo not drawn) [I-55],2 µg/mL
2,CC(C)(Cc1ccc(F)cc1)C(O)(CSCc1ccc(Cl)cc1)Cn1cncn1 (stereo not drawn) [I-58],4 µg/mL
3,CCCSCC(O)(Cn1cncn1)C(C)(C)Cc1ccc(SC(F)(F)F)cc1 (stereo not drawn) [I-60],2 µg/mL
4,CCCCSCC(O)(Cn1cncn1)C(C)(C)Cc1ccc(SC(F)(F)F)cc1 (stereo not drawn) [I-61],2 µg/mL
5,CC(C)(Cc1ccc(SC(F)(F)F)cc1)C(O)(CS)Cn1cncn1 (stereo not drawn) [I-63],2 µg/mL
6,Cc1cccc(CC(C)(C)C(O)(CSC(C)C)Cn2cncn2)c1 (stereo not drawn) [I-65],4 µg/mL
7,CCCCSCC(O)(Cn1cncn1)C(C)(C)Cc1cccc(C)c1 (stereo not drawn) [I-66],4 µg/mL
8,CCSCC(O)(Cn1cncn1)C(C)(C)COc1ccc(Cl)cc1 (stereo not drawn) [I-68],< 1 µg/mL
9,CCSCC(O)(Cn1cncn1)C(C)(C)COc1ccc(Cl)c(C)c1 (stereo not drawn) [I-69],< 1 µg/mL
10,CCCSCC(O)(Cn1cncn1)C(C)(C)COc1ccc(Cl)c(C)c1 (stereo not drawn) [I-70],2 µg/mL

# Results, then the compound that gave them:
row,MIC,SMILES
1,2 µg/mL,CCCSCC(O)(Cn1cncn1)C(C)(C)Cc1ccc(C)cc1 (stereo not drawn) [I-49]
2,< 1 µg/mL,CCSCC(O)(Cn1cncn1)C(C)(C)Cc1ccc(C)cc1 (stereo not drawn) [I-50]
3,2 µg/mL,CCCSCC(O)(Cn1cncn1)C(C)(C)Cc1ccc(F)cc1 (stereo not drawn) [I-53]
4,2 µg/mL,CCSCC(O)(Cn1cncn1)C(C)(C)Cc1cccc(C)c1 (stereo not drawn) [I-64]
5,2 µg/mL,CCSCC(O)(Cn1cncn1)C(C)(C)Cc1ccccc1C (stereo not drawn) [I-67]

# Test system: Trichophyton mentagr.
# Assay: as above
# Format: cell-based
# Details: Sabouraud's milieu d'epreuve, 28-37 °C, 96 h, inoculum 5 x 10^3 to 10^4 germs/ml, read-out: MHK-Werte in γ/ml Nährmedium, Trichophyton mentagr.
# Experimental: as §1, §2
row,SMILES,MIC
1,CC(C)SCC(O)(Cn1cncn1)C(C)(C)Cc1ccc(F)cc1 (stereo not drawn) [I-55],< 1 µg/mL
2,CC(C)(Cc1ccc(F)cc1)C(O)(CSCc1ccc(Cl)cc1)Cn1cncn1 (stereo not drawn) [I-58],< 1 µg/mL
3,CCCSCC(O)(Cn1cncn1)C(C)(C)Cc1ccc(SC(F)(F)F)cc1 (stereo not drawn) [I-60],< 1 µg/mL
4,CCCCSCC(O)(Cn1cncn1)C(C)(C)Cc1ccc(SC(F)(F)F)cc1 (stereo not drawn) [I-61],< 1 µg/mL
5,CC(C)(Cc1ccc(SC(F)(F)F)cc1)C(O)(CS)Cn1cncn1 (stereo not drawn) [I-63],< 1 µg/mL
6,Cc1cccc(CC(C)(C)C(O)(CSC(C)C)Cn2cncn2)c1 (stereo not drawn) [I-65],2 µg/mL
7,CCCCSCC(O)(Cn1cncn1)C(C)(C)Cc1cccc(C)c1 (stereo not drawn) [I-66],4 µg/mL
8,CCSCC(O)(Cn1cncn1)C(C)(C)COc1ccc(Cl)cc1 (stereo not drawn) [I-68],< 1 µg/mL
9,CCSCC(O)(Cn1cncn1)C(C)(C)COc1ccc(Cl)c(C)c1 (stereo not drawn) [I-69],< 1 µg/mL
10,CCCSCC(O)(Cn1cncn1)C(C)(C)COc1ccc(Cl)c(C)c1 (stereo not drawn) [I-70],< 1 µg/mL

# Continued, values first:
row,MIC,SMILES
1,< 1 µg/mL,CCCSCC(O)(Cn1cncn1)C(C)(C)Cc1ccc(C)cc1 (stereo not drawn) [I-49]
2,< 1 µg/mL,CCSCC(O)(Cn1cncn1)C(C)(C)Cc1ccc(C)cc1 (stereo not drawn) [I-50]
3,< 1 µg/mL,CCCSCC(O)(Cn1cncn1)C(C)(C)Cc1ccc(F)cc1 (stereo not drawn) [I-53]
4,2 µg/mL,CCSCC(O)(Cn1cncn1)C(C)(C)Cc1cccc(C)c1 (stereo not drawn) [I-64]
5,< 1 µg/mL,CCSCC(O)(Cn1cncn1)C(C)(C)Cc1ccccc1C (stereo not drawn) [I-67]

# Test system: Torulopsis glabrata
# Assay: as above
# Format: cell-based
# Details: Nakaseomyces glabratus; Fleischextrakt-Traubenzucker-Bouillon; 28-37 °C, 24-96 h; inoculum 5 x 10^3 to 10^4 germs/ml; read-out: MHK-Werte in γ/ml Nährmedium, Torulopsis glabrata
# Experimental: as §1, §2
row,SMILES,MIC
1,CC(C)SCC(O)(Cn1cncn1)C(C)(C)Cc1ccc(F)cc1 (stereo not drawn) [I-55],2 µg/mL
2,CC(C)(Cc1ccc(F)cc1)C(O)(CSCc1ccc(Cl)cc1)Cn1cncn1 (stereo not drawn) [I-58],< 1 µg/mL
3,CCCSCC(O)(Cn1cncn1)C(C)(C)Cc1ccc(SC(F)(F)F)cc1 (stereo not drawn) [I-60],4 µg/mL
4,CCCCSCC(O)(Cn1cncn1)C(C)(C)Cc1ccc(SC(F)(F)F)cc1 (stereo not drawn) [I-61],32 µg/mL
5,CC(C)(Cc1ccc(SC(F)(F)F)cc1)C(O)(CS)Cn1cncn1 (stereo not drawn) [I-63],16 µg/mL
6,Cc1cccc(CC(C)(C)C(O)(CSC(C)C)Cn2cncn2)c1 (stereo not drawn) [I-65],16 µg/mL
7,CCCCSCC(O)(Cn1cncn1)C(C)(C)Cc1cccc(C)c1 (stereo not drawn) [I-66],8 µg/mL
8,CCSCC(O)(Cn1cncn1)C(C)(C)COc1ccc(Cl)cc1 (stereo not drawn) [I-68],4 µg/mL
9,CCSCC(O)(Cn1cncn1)C(C)(C)COc1ccc(Cl)c(C)c1 (stereo not drawn) [I-69],16 µg/mL
10,CCCSCC(O)(Cn1cncn1)C(C)(C)COc1ccc(Cl)c(C)c1 (stereo not drawn) [I-70],8 µg/mL

# Continued, values first:
row,MIC,SMILES
1,2 µg/mL,CCCSCC(O)(Cn1cncn1)C(C)(C)Cc1ccc(C)cc1 (stereo not drawn) [I-49]
2,4 µg/mL,CCSCC(O)(Cn1cncn1)C(C)(C)Cc1ccc(C)cc1 (stereo not drawn) [I-50]
3,2 µg/mL,CCCSCC(O)(Cn1cncn1)C(C)(C)Cc1ccc(F)cc1 (stereo not drawn) [I-53]
4,4 µg/mL,CCSCC(O)(Cn1cncn1)C(C)(C)Cc1cccc(C)c1 (stereo not drawn) [I-64]
5,2 µg/mL,CCSCC(O)(Cn1cncn1)C(C)(C)Cc1ccccc1C (stereo not drawn) [I-67]
